Laboratory results as given in ChEMBL document CHEMBL2029259, “Design, synthesis, and biological evaluation of novel conformationally constrained inhibitors targeting epidermal growth factor receptor threonine⁷⁹⁰ → methionine⁷⁹⁰ mutant” (J Med Chem, 2012).

Legend:
[1] = molecular target: T1, Epidermal growth factor receptor (Homo sapiens, UniProt P00533); test: Inhibition of EGFR after 1.5 hr by FRET assay
A549 = test: Antiproliferative activity against human A549 cells expressing wild type EGFR coexpressing k-Ras mutant after 72 hrs by MTS assay; details: A549, 72 h
[2] = molecular target: T2, Epidermal growth factor receptor (Homo sapiens, UniProt P00533, T790M); test: Inhibition of EGFR T790M mutant after 1.5 hr by FRET assay; type: protein assay
[3] = Antiproliferative activity against human HL7702 cells expressing wilt type EGFR after 72 hrs by MTS assay; details: L02, 72 h
[4] = molecular target: T3, Epidermal growth factor receptor (Homo sapiens, UniProt P00533, L858R); test: Inhibition of EGFR L858R mutant after 1.5 hr by FRET assay; type: protein assay
NCI-H1975 = test: cells; details: Homo sapiens, NCI-H1975, 72 h
A-431 = test: Antiproliferative activity against human A431 cells overexpressing EGFR after 72 hrs by MTS assay; details: A-431, 72 h
cells = details: Homo sapiens, HCC827, 72 h
[5] = molecular target: T4, Epidermal growth factor receptor (Homo sapiens, UniProt P00533, L861Q); test: Inhibition of EGFR L861Q mutant after 1.5 hr by FRET assay; type: protein assay
[6] = molecular target: T5, Epidermal growth factor receptor (Homo sapiens, UniProt P00533, L858R/T790M); test: Inhibition of EGFR L858R/T790M mutant after 1.5 hr by FRET assay; type: protein assay
[7] = molecular target: T3, Epidermal growth factor receptor; test: Binding affinity to EGFR L858R mutant
[8] = molecular target: T5, Epidermal growth factor receptor; test: Binding affinity to EGFR L858R/T790M mutant
[9] = molecular target: T2, Epidermal growth factor receptor; test: Binding affinity to EGFR T790M mutant
[10] = molecular target: T4, Epidermal growth factor receptor; test: Binding affinity to EGFR L861Q mutant
[11] = molecular target: T1, Epidermal growth factor receptor; test: Binding affinity to EGFR

T1 sequence (P00533 whole entry): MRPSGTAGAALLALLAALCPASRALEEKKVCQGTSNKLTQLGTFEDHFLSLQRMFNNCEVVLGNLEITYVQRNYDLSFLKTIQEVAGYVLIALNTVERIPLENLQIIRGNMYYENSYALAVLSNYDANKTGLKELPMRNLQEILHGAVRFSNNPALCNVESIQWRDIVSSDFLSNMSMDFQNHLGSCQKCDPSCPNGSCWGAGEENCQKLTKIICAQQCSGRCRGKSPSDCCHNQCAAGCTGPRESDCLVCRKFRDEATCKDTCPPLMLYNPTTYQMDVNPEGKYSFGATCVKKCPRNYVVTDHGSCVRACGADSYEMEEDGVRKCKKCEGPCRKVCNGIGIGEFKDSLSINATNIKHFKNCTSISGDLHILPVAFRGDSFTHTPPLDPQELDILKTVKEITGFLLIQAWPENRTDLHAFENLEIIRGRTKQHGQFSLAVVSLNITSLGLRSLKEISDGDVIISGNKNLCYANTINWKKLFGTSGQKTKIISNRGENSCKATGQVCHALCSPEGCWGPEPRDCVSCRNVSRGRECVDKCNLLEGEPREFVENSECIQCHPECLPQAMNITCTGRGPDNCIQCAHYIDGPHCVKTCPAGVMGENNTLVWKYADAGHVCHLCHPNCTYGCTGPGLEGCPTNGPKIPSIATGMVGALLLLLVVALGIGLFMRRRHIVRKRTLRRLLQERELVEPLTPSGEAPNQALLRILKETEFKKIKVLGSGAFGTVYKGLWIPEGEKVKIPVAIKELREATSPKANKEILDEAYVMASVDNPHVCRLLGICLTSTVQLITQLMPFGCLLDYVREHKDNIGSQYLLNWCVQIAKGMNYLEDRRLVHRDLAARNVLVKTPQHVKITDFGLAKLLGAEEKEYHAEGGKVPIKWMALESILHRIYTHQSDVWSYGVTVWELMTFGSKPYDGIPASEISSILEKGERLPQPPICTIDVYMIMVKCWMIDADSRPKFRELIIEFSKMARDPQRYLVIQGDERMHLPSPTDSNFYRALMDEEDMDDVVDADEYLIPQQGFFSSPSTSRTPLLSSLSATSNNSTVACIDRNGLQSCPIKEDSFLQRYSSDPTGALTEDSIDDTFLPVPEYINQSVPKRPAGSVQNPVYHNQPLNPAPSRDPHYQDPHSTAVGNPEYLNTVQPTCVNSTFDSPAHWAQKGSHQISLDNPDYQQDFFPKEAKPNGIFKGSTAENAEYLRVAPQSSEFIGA
T4 sequence (P00533 25-1210 L861Q limits assumed): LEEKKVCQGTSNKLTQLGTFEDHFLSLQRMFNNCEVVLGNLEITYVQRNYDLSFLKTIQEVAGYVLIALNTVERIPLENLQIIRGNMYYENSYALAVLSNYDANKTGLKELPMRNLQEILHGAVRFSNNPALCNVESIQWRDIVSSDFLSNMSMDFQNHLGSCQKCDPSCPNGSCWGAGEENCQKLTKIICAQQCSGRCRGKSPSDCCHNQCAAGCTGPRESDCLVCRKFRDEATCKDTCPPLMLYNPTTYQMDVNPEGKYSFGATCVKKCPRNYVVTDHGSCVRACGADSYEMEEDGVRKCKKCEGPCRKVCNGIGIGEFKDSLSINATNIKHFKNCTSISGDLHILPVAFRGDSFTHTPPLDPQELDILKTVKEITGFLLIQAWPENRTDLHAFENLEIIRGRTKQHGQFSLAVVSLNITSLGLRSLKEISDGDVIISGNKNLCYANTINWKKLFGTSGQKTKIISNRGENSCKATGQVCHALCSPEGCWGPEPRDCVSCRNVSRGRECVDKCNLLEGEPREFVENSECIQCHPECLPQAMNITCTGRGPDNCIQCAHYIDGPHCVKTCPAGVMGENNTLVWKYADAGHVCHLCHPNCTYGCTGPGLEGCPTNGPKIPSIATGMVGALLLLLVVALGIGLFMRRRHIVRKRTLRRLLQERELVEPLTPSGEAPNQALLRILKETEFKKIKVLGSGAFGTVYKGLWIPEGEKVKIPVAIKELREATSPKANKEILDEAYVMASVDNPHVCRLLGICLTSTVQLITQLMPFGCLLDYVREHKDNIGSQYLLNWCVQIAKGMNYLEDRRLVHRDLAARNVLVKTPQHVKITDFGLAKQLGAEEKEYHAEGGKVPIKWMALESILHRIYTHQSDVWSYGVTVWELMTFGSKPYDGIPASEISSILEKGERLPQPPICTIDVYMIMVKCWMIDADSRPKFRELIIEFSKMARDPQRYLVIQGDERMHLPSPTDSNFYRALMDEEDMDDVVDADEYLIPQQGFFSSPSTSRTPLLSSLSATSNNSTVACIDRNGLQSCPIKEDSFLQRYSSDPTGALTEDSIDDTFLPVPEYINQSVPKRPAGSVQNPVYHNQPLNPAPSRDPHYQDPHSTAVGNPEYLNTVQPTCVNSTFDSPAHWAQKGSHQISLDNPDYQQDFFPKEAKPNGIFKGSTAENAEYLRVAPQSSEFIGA
T3 sequence (P00533 25-1210 L858R limits assumed): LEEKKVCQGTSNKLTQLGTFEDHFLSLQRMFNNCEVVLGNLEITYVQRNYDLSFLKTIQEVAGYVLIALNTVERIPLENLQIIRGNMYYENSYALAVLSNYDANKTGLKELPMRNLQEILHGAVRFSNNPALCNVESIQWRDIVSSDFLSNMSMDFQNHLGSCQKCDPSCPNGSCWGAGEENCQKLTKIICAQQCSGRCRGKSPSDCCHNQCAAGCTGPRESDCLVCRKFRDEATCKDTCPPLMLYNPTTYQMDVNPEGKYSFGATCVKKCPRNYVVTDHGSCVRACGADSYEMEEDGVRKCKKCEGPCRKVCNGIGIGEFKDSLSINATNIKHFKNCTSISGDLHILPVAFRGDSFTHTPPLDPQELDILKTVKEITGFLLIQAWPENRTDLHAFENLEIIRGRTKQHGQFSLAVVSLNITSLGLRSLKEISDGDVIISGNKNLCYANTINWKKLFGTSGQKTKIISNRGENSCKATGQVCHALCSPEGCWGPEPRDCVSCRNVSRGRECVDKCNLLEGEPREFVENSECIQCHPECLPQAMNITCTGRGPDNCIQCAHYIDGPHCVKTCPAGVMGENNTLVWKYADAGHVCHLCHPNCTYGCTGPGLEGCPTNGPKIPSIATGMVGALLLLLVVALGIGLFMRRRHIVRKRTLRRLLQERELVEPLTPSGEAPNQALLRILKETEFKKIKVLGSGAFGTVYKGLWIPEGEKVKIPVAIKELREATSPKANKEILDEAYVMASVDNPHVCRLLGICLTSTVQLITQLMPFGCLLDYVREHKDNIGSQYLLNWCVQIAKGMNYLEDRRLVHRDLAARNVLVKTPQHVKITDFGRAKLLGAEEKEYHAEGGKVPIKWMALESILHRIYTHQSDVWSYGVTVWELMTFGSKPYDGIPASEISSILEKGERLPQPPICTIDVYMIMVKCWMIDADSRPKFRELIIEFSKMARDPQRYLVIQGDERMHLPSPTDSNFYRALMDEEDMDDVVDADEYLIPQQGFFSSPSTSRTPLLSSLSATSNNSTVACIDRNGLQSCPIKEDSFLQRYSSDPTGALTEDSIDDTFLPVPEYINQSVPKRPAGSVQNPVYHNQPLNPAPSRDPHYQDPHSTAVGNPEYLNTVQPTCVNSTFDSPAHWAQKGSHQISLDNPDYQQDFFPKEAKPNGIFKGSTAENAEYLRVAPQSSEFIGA
T5 sequence (P00533 25-1210 T790M/L858R limits assumed): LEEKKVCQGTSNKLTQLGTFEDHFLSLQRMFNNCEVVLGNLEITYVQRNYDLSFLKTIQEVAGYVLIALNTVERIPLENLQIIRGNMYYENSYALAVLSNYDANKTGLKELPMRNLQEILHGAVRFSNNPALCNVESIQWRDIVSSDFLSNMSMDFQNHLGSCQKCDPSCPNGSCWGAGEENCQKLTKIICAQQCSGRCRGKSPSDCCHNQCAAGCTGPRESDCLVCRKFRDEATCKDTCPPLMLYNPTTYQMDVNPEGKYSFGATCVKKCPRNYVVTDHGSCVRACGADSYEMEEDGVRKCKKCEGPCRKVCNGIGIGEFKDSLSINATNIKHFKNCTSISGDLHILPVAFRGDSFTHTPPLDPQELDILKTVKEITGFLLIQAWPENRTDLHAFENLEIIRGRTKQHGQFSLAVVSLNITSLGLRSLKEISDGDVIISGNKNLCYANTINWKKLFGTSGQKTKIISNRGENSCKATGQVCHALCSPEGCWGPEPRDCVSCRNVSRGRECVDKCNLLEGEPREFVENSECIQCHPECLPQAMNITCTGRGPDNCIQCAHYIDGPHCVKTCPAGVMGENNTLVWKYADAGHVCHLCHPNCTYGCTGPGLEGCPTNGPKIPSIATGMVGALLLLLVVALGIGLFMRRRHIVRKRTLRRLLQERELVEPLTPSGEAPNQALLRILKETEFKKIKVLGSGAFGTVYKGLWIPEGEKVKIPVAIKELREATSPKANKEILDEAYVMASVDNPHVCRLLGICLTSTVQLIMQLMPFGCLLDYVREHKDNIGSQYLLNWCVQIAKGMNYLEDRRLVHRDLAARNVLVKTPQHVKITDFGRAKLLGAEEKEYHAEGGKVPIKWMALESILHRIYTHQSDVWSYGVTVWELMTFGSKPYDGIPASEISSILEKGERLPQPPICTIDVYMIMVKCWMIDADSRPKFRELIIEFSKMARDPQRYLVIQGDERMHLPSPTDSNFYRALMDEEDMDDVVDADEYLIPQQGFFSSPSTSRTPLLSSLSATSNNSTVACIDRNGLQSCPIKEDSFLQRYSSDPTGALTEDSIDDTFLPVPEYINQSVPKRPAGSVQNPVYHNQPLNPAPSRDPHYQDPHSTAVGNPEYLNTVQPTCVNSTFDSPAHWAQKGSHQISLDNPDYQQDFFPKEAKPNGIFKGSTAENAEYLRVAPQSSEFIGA

Row | Compound | IC50 [1] [nM] | IC50 (A549) [nM] | IC50 [2] [nM] | IC50 [3] [nM] | IC50 [4] [nM] | IC50 (NCI-H1975) [nM] | IC50 (A-431) [nM] | IC50 (cells) [nM] | IC50 [5] [nM] | IC50 [6] [nM] | Kd [7] [nM] | Kd [8] [nM] | Kd [9] [nM] | Kd [10] [nM] | Kd [11] [nM]
1 | C=CC(=O)Nc1cccc(N2C(=O)N(C)Cc3cnc(Nc4ccc(N5CCOCC5)cc4OC)nc32)c1 | 16.4 | 10500 | 60.3 | > 10000 | 10.3 | 150 | > 10000 | 130 | 12.7 | 28.9 | – | – | – | – | –
2 | C=CC(=O)Nc1cccc(N2C(=O)N(C)Cc3cnc(Nc4ccccc4)nc32)c1 | 6.95 | 18000 | 45.7 | > 10000 | 10.9 | 170 | 6900 | 44 | 12.1 | 28.3 | – | – | – | – | –
3 | C=CC(=O)Nc1cccc(Oc2nc(Nc3ccc(N4CCN(C)CC4)cc3OC)ncc2Cl)c1 | – | 5310 | – | 2730 | – | 48 | 1390 | 7 | – | – | – | – | – | – | –
4 | C=CC(=O)Nc1cccc(N2C(=O)N(C)Cc3cnc(Nc4ccc(N5CCN(C)CC5)cc4C)nc32)c1 | 1.95 | 11900 | 9.37 | > 10000 | 1.21 | 200 | 990 | 31 | 1.31 | 4.18 | – | – | – | – | –
5 | C=CC(=O)Nc1cccc(N2C(=O)N(C)Cc3cnc(NC)nc32)c1 | 929 | > 20000 | > 1000 | > 10000 | > 1000 | 20100 | > 10000 | 6920 | 837 | > 1000 | – | – | – | – | –
6 | C=CC(=O)Nc1cccc(N2C(=O)N(C)Cc3cnc(Nc4ccc(N5CCN(C)CC5)cc4)nc32)c1 | 0.43 | 11400 | 1.66 | 7560 | 0.53 | 45 | 550 | 14 | 0.56 | 1.19 | – | – | – | – | –
7 | C=CC(=O)Nc1cccc(N2C(=O)N(c3ccc(-c4ccccc4)cc3)Cc3cnc(Nc4ccc(N5CCN(C)CC5)cc4OC)nc32)c1 | 1.41 | 2270 | 5.24 | 3690 | 1.67 | – | – | – | 3.43 | 4.64 | – | – | – | – | –
8 | C=CC(=O)Nc1cccc(N2C(=O)N(C(C)C)Cc3cnc(Nc4ccc(N5CCN(C)CC5)cc4OC)nc32)c1 | 0.38 | 8420 | – | > 10000 | 0.45 | 58 | 820 | 4 | 0.46 | 4.42 | – | – | – | – | –
9 | C=CC(=O)Nc1cccc(N2C(=O)N(C)Cc3cnc(Nc4ccc(N5CCC(N(C)C)CC5)cc4OC)nc32)c1 | 3.52 | 14500 | 9.52 | > 10000 | 2.41 | 530 | 1390 | 150 | 2.83 | 5.2 | – | – | – | – | –
10 | C=CC(=O)Nc1cccc(N2C(=O)N(C)Cc3cnc(Nc4ccc(N5CCN(C)CC5)cc4OC)nc32)c1 | 1.16 | 15900 | 6.56 | > 10000 | 1.08 | 47 | 750 | 18 | 1.21 | 3.14 | – | – | – | – | –
11 | C=CC(=O)Nc1cccc(N2C(=O)N(C)Cc3cnc(Nc4ccc(N(C)C)cc4OC)nc32)c1 | 4.99 | > 20000 | 24.9 | > 10000 | 4.95 | 540 | 5620 | 740 | 6.22 | 11.5 | – | – | – | – | –
12 | COc1cc(N2CCN(C)CC2)ccc1Nc1ncc2c(n1)N(c1cccc(N)c1)C(=O)N(C)C2 | > 1000 | 11200 | > 1000 | > 10000 | > 1000 | > 20000 | > 10000 | 4890 | > 1000 | > 1000 | – | – | – | – | –
13 | C=CC(=O)Nc1cccc(N2C(=O)N(C)Cc3cnc(Nc4ccc(N5CCN(C)CC5)cc4OC(C)C)nc32)c1 | 8.81 | 11700 | 39.9 | > 10000 | 13.7 | 230 | 2110 | 27 | 13.5 | 36.3 | – | – | – | – | –
14 | CCC(=O)Nc1cccc(N2C(=O)N(C)Cc3cnc(Nc4ccc(N5CCN(C)CC5)cc4OC)nc32)c1 | > 1000 | > 30000 | > 1000 | > 10000 | > 1000 | > 20000 | > 10000 | – | > 1000 | > 1000 | 1600 | 850 | 560 | 1100 | 1400
15 | C=CC(=O)Nc1cccc(N2C(=O)N(c3ccc(Oc4ccccc4)cc3)Cc3cnc(Nc4ccc(N5CCN(C)CC5)cc4OC)nc32)c1 | 1.52 | 1770 | 2.03 | > 10000 | 1.66 | – | – | – | 2.31 | 3.57 | – | – | – | – | –
16 | C=CC(=O)Nc1cccc(N2C(=O)N(C)Cc3cnc(Nc4ccc(N5CCN(C)CC5)cc4OCC)nc32)c1 | 4.41 | 10400 | 12.7 | > 10000 | 2.68 | 103 | 1080 | 14 | 3.02 | 7.1 | – | – | – | – | –
17 | C=CC(=O)Nc1cc2c(Nc3ccc(F)c(Cl)c3)ncnc2cc1OCCCN1CCOCC1 [CANERTINIB] | – | – | – | – | – | – | – | 1 | – | – | – | – | – | – | –
18 | C=CC(=O)Nc1cccc(N2C(=O)N(c3ccc(OCc4ccccc4)cc3)Cc3cnc(Nc4ccc(N5CCN(C)CC5)cc4OC)nc32)c1 | 1.67 | 2470 | 2.43 | 2790 | 2.42 | – | – | – | 2.56 | 6.31 | – | – | – | – | –
19 | C=CC(=O)Nc1cccc(N2C(=O)N(C)Cc3cnc(Nc4ccc(N5CCCN(C)CC5)cc4OC)nc32)c1 | 1.47 | > 20000 | 11 | > 10000 | 2.11 | 720 | 2150 | 73 | 2.75 | 5.17 | – | – | – | – | –
20 | C=CC(=O)Nc1cccc(N2C(=O)N(C)Cc3cnc(Nc4ccc(N5CCN(C)CC5)cc4F)nc32)c1 | > 1000 | 11100 | > 1000 | 7180 | > 1000 | 8460 | > 10000 | 5010 | > 1000 | > 1000 | – | – | – | – | –
21 | C=CC(=O)Nc1cccc(N2C(=O)N(C)Cc3cnc(Nc4ccc(N5CCCCC5)cc4OC)nc32)c1 | 29.5 | 12000 | 95.7 | > 10000 | 10.4 | 610 | 5060 | 170 | 15.4 | 36.4 | – | – | – | – | –
